# Laboratory results from patent US6436421B1, “Pesticide compositions” (priority 1997, dated 2002).
# Like-named read-outs stand apart in the source and are kept apart here.
# Type: physicochemical
# Method: One method to evaluate the efficacy of a pesticide adjuvant is to measure its affect on the ability of the pesticide composition to resist wash-off from a surface. One skilled in the art will recognize that a pesticide which remains on the surface of a plant will be expected to have increased efficacy.
# A suspension of the pesticide formulation was prepared by adding a premix of water and surfactant, with and without the polymer additives, followed by vigorous shaking of the mixtures by hand. Pieces of Parafilm™M laboratory film, a very soft, flexible, and hydrophobic film, were taped to plastic petrie dishes. The suspensions were sprayed with an automated sprayer as the petrie dishes with attached film were moved at a standard rate below the sprayer. The spray residues were allowed to dry, and a second application of spray was applied. One set of films was exposed, at an inclination of 45 degrees, to approximately 25 mm of water applied by a spray bar (equipped with TX-4 cone-type spray nozzles) that moved back and forth over the samples for a period of about 1 hour. The exposed films were allowed to dry. Another set of films was not exposed to water.
# Infra-red spectra of the films were obtained by an Attenuated Total Reflection (ATR) technique. The films were pressed against a Zinc Selenide crystal that had been cleaned previously with methanol. Spectra were recorded with a Spectratech Allied Systems Fourier Transform Infra-Red Spectrometer, and stored in a computer. Peaks associated with pesticide residue were identified by inspection and peak areas were calculated by computer (Pesticide Peak Area, “PA”). A corresponding area for a Parafilm™ peak as similar as possible in peak location and size (in the same spectrum) was calculated (Film Peak Area, “FA”). […] A measure of the pesticide on the surface “P” was derived from the following calculation:
# A relative measure of the amount of pesticide remaining after the above exposure to water was then derived from the following calculation: [formula]
# Although the intensity of spectral peaks recorded with the ATR technique are very dependent on details of contact with the film, by obtaining a ratio of the pesticide peak to the film peak in the same spectral recording, different spectra can be compared with details of contact being compensated for, since they will have similar effects on the intensity of the pesticide absorption and the film absorption. The intensity of the pesticide peak relative to the film peak will depend on the degree of coverage of the film by the pesticide. To maximize coverage, the spraying was conducted twice. Furthermore, a wetting agent (surfactant) was included in the premix to promote wetting of the film by the spray droplets. Since exposure to water can result in re-distribution of the pesticide as well as wash-off of the pesticide, the measure of the amount remaining is only relative.
# In all cases, a measured amount of pesticide was mixed with 270 grams of deionized water and 30 grams of 0.5% Silwet L-77 surfactant. This premix was divided into 50 gram portions. One portion was sprayed without adding polymer. For mixes containing polymer, 66.6 milligrams powder polymer or 1.32 g of a 5% solids dilution of the emulsion polymer were added to the 50 grams of premix.
# TX-2 nozzle 12 inches above laboratory film.
# 58 psi (delivers 150 cc/minute).
# Laboratory film moves at 1 mile/hour.
# Fan nozzle 14 inches above laboratory film.
# 29 psi (Spray 15 cc with two passes over laboratory film at a rate to give 25 gallons/acre).
SMILES,"% AI Retained After One Inch Spray-Bar Rain, M (mean) (No Polymer) [%]","% AI Retained After One Inch Spray-Bar Rain, M (mean) (with Emulsion IV) [%]","% AI Retained After One Inch Spray-Bar Rain, M (mean) (with Powder I) [%]","% AI Retained After One Inch Spray-Bar Rain, M (mean) (with Powder II) [%]","% AI Retained After One Inch Spray-Bar Rain, M (mean) (with Powder III) [%]"
CNC(=O)Oc1cccc2ccccc12 [carbaryl],25,40,31,32,27
CNC(=O)Oc1cccc2c1OC(C)(C)C2 [carbofuran],3,9,39,23,16
CN(C)C(CSC(N)=O)CSC(N)=O [cartap],4,3,5,8,8
N#Cc1c(Cl)c(Cl)c(Cl)c(C#N)c1Cl [chlorothalonil],2,12,16,54,4
[Cu+2].[OH-].[OH-] [copper hydroxide],20,11,22,80,21
OC(c1ccc(Cl)cc1)(c1ccc(Cl)cc1)C(Cl)(Cl)Cl [dicofol],18,95,76,62,62
N#CC(CCc1ccc(Cl)cc1)(Cn1cncn1)c1ccccc1 (centres unmarked) [fenbuconazole],9,83,63,82,48
